# Measurements from ChEMBL document CHEMBL1201862, “PubChem BioAssay data set” (2004).
#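 Values below derive from 48-hour exposures of cells grown in 96-well plates, with endpoints linearly interpolated between the two concentrations bracketing the appropriate inhibition level. Abbreviation: GI50, concentration required for 50% inhibition of growth.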 Active and inactive are the calls of the source. Cut-off read from the data, not from the text of the source: active = GI50 up to about 1.1 µM and inactive = higher.
# Legend:
# Experiment in all cases: NCI-60 cell line screen, 48 h
# 786-0 = tested on: 786-0
# BT-549 = tested on: BT-549
# HL-60 = tested on: HL-60
# KM12 = tested on: KM12
# MCF7 = tested on: MCF7
# MDA-N = tested on: MDA-N
# NCI-H226 = tested on: NCI-H226
# NCI-H23 = tested on: NCI-H23
# OVCAR-3 = tested on: OVCAR-3
# OVCAR-5 = tested on: OVCAR-5
# PC-3 = tested on: PC-3
# RPMI-8226 = tested on: RPMI-8226
# SF-539 = tested on: SF-539
# SNB-75 = tested on: SNB-75
# SW-620 = tested on: SW-620
# TK-10 = tested on: TK-10
# UACC-257 = tested on: UACC-257
# UACC-62 = tested on: UACC-62
# Malme-3M = tested on: Malme-3M
# UO-31 = tested on: UO-31
Structure (SMILES),GI50 (786-0),GI50 (BT-549),GI50 (HL-60),GI50 (KM12),GI50 (MCF7),GI50 (MDA-N),GI50 (NCI-H226),GI50 (NCI-H23),GI50 (OVCAR-3),GI50 (OVCAR-5),GI50 (PC-3),GI50 (RPMI-8226),GI50 (SF-539),GI50 (SNB-75),GI50 (SW-620),GI50 (TK-10),GI50 (UACC-257),GI50 (UACC-62),GI50 (Malme-3M),GI50 (UO-31)
COC(=O)c1cc2c(o1)Sc1ccccc1NC2=O,87.1 µM (inactive),> 100 µM (inactive),> 100 µM (inactive),> 100 µM (inactive),> 100 µM (inactive),> 100 µM (inactive),> 100 µM (inactive),> 100 µM (inactive),> 100 µM (inactive),> 100 µM (inactive),> 100 µM (inactive),> 100 µM (inactive),29 µM (inactive),24.8 µM (inactive),> 100 µM (inactive),> 100 µM (inactive),> 100 µM (inactive),> 100 µM (inactive),,
CC(C)(C)C1=CC(=CC=C2C=CN(CCCCCCCCCCCO)C=C2)C=C(C(C)(C)C)C1=O,1.26 µM (inactive),2.12 µM (inactive),1.72 µM (inactive),1.83 µM (inactive),0.796 µM (active),1.87 µM (inactive),,2.03 µM (inactive),1.01 µM (active),2.48 µM (inactive),1.69 µM (inactive),0.338 µM (active),2.07 µM (inactive),1.82 µM (inactive),2.19 µM (inactive),1.5 µM (inactive),1.87 µM (inactive),1.5 µM (inactive),1.46 µM (inactive),1.76 µM (inactive)
Clc1cc(Cl)cc(C2ON=C(c3ccccc3)N2C23CC4CC(CC(C4)C2)C3)c1 (stereo unspecified),> 10 µM (inactive),> 10 µM (inactive),,> 10 µM (inactive),> 10 µM (inactive),> 10 µM (inactive),> 10 µM (inactive),> 10 µM (inactive),> 10 µM (inactive),> 10 µM (inactive),> 10 µM (inactive),> 10 µM (inactive),> 10 µM (inactive),> 10 µM (inactive),> 10 µM (inactive),> 10 µM (inactive),> 10 µM (inactive),> 10 µM (inactive),> 10 µM (inactive),> 10 µM (inactive)
Cc1cn(C2CC(n3cc(Cn4cc(Br)c(=O)[nH]c4=O)nn3)C(CO)O2)c(=O)[nH]c1=O (stereo unspecified),93.1 µM (inactive),> 100 µM (inactive),0.0395 µM (active),47.3 µM (inactive),> 100 µM (inactive),62.2 µM (inactive),,> 100 µM (inactive),> 100 µM (inactive),> 100 µM (inactive),> 100 µM (inactive),52.6 µM (inactive),> 100 µM (inactive),60.5 µM (inactive),> 100 µM (inactive),> 100 µM (inactive),> 100 µM (inactive),> 100 µM (inactive),> 100 µM (inactive),88.1 µM (inactive)
COc1ccc2nc3n(c2c1)C(c1c(F)cccc1F)SC3 (stereo unspecified),39.6 µM (inactive),> 100 µM (inactive),23.3 µM (inactive),40.2 µM (inactive),32 µM (inactive),61.4 µM (inactive),19.9 µM (inactive),25.9 µM (inactive),28.6 µM (inactive),> 100 µM (inactive),29.7 µM (inactive),29.9 µM (inactive),> 100 µM (inactive),74.6 µM (inactive),64.6 µM (inactive),77.4 µM (inactive),> 100 µM (inactive),56.9 µM (inactive),,51.9 µM (inactive)
C/C(=C1/N=C(c2ccccc2)OC1=O)c1ccc(C)cc1,> 100 µM (inactive),> 100 µM (inactive),45.3 µM (inactive),> 100 µM (inactive),> 100 µM (inactive),> 100 µM (inactive),> 100 µM (inactive),> 100 µM (inactive),> 100 µM (inactive),> 100 µM (inactive),> 100 µM (inactive),74.1 µM (inactive),> 100 µM (inactive),,> 100 µM (inactive),> 100 µM (inactive),> 100 µM (inactive),> 100 µM (inactive),> 100 µM (inactive),
C/C(Cc1ccc2c(c1)OCO2)=N\NC(=O)C(C)Sc1nnc(SC(C)C(=O)N/N=C(\C)Cc2ccc3c(c2)OCO3)s1 (stereo unspecified),> 100 µM (inactive),> 100 µM (inactive),> 100 µM (inactive),> 100 µM (inactive),24.1 µM (inactive),> 100 µM (inactive),> 100 µM (inactive),> 100 µM (inactive),> 100 µM (inactive),> 100 µM (inactive),> 100 µM (inactive),37.6 µM (inactive),,83.9 µM (inactive),> 100 µM (inactive),> 100 µM (inactive),> 100 µM (inactive),> 100 µM (inactive),> 100 µM (inactive),> 100 µM (inactive)
O=C(O)c1c(O)c2cc(Br)ccc2oc1=O,> 100 µM (inactive),> 100 µM (inactive),> 100 µM (inactive),,> 100 µM (inactive),> 100 µM (inactive),> 100 µM (inactive),> 100 µM (inactive),> 100 µM (inactive),> 100 µM (inactive),> 100 µM (inactive),> 100 µM (inactive),> 100 µM (inactive),> 100 µM (inactive),> 100 µM (inactive),> 100 µM (inactive),> 100 µM (inactive),> 100 µM (inactive),> 100 µM (inactive),
C=C1CC=CC(C)(C)C1C/C=C(\C)C(O)CBr (stereo unspecified),28.6 µM (inactive),97.3 µM (inactive),32.4 µM (inactive),77.1 µM (inactive),36.2 µM (inactive),42.6 µM (inactive),37.5 µM (inactive),> 100 µM (inactive),,> 100 µM (inactive),47.6 µM (inactive),25.4 µM (inactive),29.9 µM (inactive),,33.1 µM (inactive),89.9 µM (inactive),54.7 µM (inactive),53.7 µM (inactive),,35.7 µM (inactive)
Cc1ccc(C)c(COCCOCn2cc(N3CCOCC3)c(=O)[nH]c2=O)c1,> 100 µM (inactive),> 100 µM (inactive),3.63 µM (inactive),> 100 µM (inactive),> 100 µM (inactive),> 100 µM (inactive),> 100 µM (inactive),> 100 µM (inactive),,> 100 µM (inactive),> 100 µM (inactive),,> 100 µM (inactive),> 100 µM (inactive),> 100 µM (inactive),> 100 µM (inactive),> 100 µM (inactive),> 100 µM (inactive),> 100 µM (inactive),> 100 µM (inactive)
CC(=O)OC1CCC2C3CCc4c(C)ccc(OS(=O)(=O)c5ccccc5)c4C3CCC12C (stereo unspecified),6.76 µM (inactive),23.7 µM (inactive),3.84 µM (inactive),,16.2 µM (inactive),> 100 µM (inactive),14.8 µM (inactive),16.3 µM (inactive),7.33 µM (inactive),86.1 µM (inactive),5.57 µM (inactive),21.7 µM (inactive),,,63.5 µM (inactive),52.1 µM (inactive),73.3 µM (inactive),26.2 µM (inactive),50.4 µM (inactive),21.9 µM (inactive)
